The source of these data is paper PMC3984054 (Bioorganic & medicinal chemistry, 2013).

Read-outs that look alike come from different tables or passages of the source. Marks after values point to notes of the source that are not given here.

The test system of data set [1] is PrP^Sc in dividing ScN2a-cl3 cells. The data set can be described thus: cells. In kind it is cell-based, mouse. The following applies: for EC50: Mus musculus.
A short description of a further data set: in vivo. The following applies: female, FVB, mouse, po, 10 mg/kg, Cmax ± SD.
A further data set can be described thus: in vitro. The following applies: mouse.
Another data set concerns PrP^Sc in dividing cells. The following applies: cited from earlier work.
Data set [2] has as its system PrP^Sc in stationary-phase cells. The following applies: cited from earlier work.
For data set [3], the system named is PrP^Sc in stationary-phase ScN2a-cl3 cells. In kind it is cell-based, mouse.
[4] abbreviates: read-out: EC50 in dividing cells (text and footnote).

By EC50 is commonly meant the concentration at which the effect is half-maximal. As to `c1cncc(-c2nc(-c3c[nH]c4ccccc34)cs2)c1` [IND24350], the EC50 in data set [1] (setting [4]) is less than 1 µM.
On to `COc1ccc(-c2cc(-c3ccc(OC)cc3O)[nH]n2)cc1` [IND25807], for which the EC50 in data set [1] (setting [4]) is less than 1 µM.
On the same count and under the same terms, the result for `COc1cccc(Nc2nc(N)c3ccccc3n2)c1` [IND35916] reads greater than 1 µM; that for `COc1cc(N)c(-c2ccc3cc(OC)c(OC)cc3n2)cc1OC` [IND44355], greater than 1 µM; that for `OCCNCc1cc(Br)ccc1OCc1ccc(Cl)cc1Cl` [IND34452], greater than 1 µM.
The term Cmax denotes the peak of the concentration-time curve. Regarding `CN1CCN(c2ccc(Nc3ccnc4cc(Cl)ccc34)cc2)CC1` [IND45193], the EC50 in data set [1] (setting [4]) was greater than 1 µM. The Cmax came to 1610 ± 230 nM in the data set “in vivo” (brain) and 130 ± 10 nM in the data set “in vivo” (plasma).
Turning to `N#Cc1sc2nc(-c3ccc4c(c3)OCO4)ccc2c1N` [IND52851], the figures for the Cmax in the data set “in vivo” (brain) and in “in vivo” (plasma) were 1020 ± 710 nM and 410 ± 250 nM, respectively.
Consider `CCOc1ccc(NC(=O)c2cc3ccccc3cc2O)cc1` [IND31751], for which, in data set [1] (setting [4]), the EC50 was less than 1 µM.
As to Enoxaparin [reference compound], the “EC50 ± SEM (antiprion activity by ELISA)” value in data set [1] is listed as >10 (mg/L). Also, the “LC50 ± SEM (cell viability by calcein)” value with dividing ScN2a-cl3 cells is given as >10 (mg/L).
For `COc1cc(CNCCO)cc(Br)c1OCc1ccccc1Cl` [IND46380], in data set [1] (setting [4]), the EC50 is greater than 1 µM.
Still for that read-out and setting: the result for `COc1ccc(-c2nc3cc(NC(=O)c4ccc(OCc5ccccc5)cc4)ccc3o2)cc1` [IND114202] reads less than 1 µM.
In the case of `CC(=O)c1ccc(NC(=O)c2sc3nc4c(cc3c2N)CCCC4)cc1` [IND24609], the “antiprion potency in dividing cells” value in data set [1] was “inactive”.
Regarding `Cn1c(=N)n(CC(=O)c2ccc(Cl)cc2)c2ccccc21` [IND26326], the EC50 in data set [1] (setting [4]) was greater than 1 µM.
`Nc1c(/N=N/c2ccc(-c3ccc(/N=N/c4cc(S(=O)(=O)[O-])c5ccccc5c4N)cc3)cc2)cc(S(=O)(=O)[O-])c2ccccc12.[Na+].[Na+]` [Congo Red, reference compound]: the “antiprion potency in dividing cells” value in data set [1] is recorded as “good potency”. Further, the EC50 in data set [1] (setting [4]) is roughly 0.4 µM. In the data set with dividing ScN2a-cl3 cells, the “effect on cell viability” value was “no effects on cell viability”.
As for `COc1ccc(CCNC(=O)c2sc3nc(-c4cccs4)ccc3c2N)cc1OC` [IND42103], the “antiprion potency in dividing cells” value in data set [1] was “inactive”.
With `CN1CCc2cccc3c2[C@H]1Cc1ccc(O)c(O)c1-3` [Apomorphine, reference compound], the EC50 in data set [1] (read-out: EC50 ± SEM (antiprion activity by ELISA)) is greater than 10 µM.
As for `COc1ccccc1OCCNCC(O)COc1cccc2[nH]c3ccccc3c12` (stereo not shown) [Carvedilol], the CC50 in the data set “in vitro” was in the range of 5 to 6.1 µM.
On to `COc1ccc2cc3c(N)c(C(=O)Nc4ccc(C(C)=O)cc4)sc3nc2c1` [IND52025], for which the EC50 in data set [1] (setting [4]) was less than 1 µM.
On to `COc1ccc(C(=O)Nc2ccc(-c3csc(C)n3)cc2)cc1` [IND33145], for which the EC50 in data set [1] (setting [4]) was less than 1 µM.
Consider Dextran [reference compound], for which, in data set [1], the “EC50 ± SEM (antiprion activity by ELISA)” value was 0.40 ± 0.08 (mg/L) and the “antiprion potency in dividing cells” value was “good potency”.
For `CN(C)CCNc1nc(-c2ccc(Cl)cc2)nc2ccccc12` [IND34921], the EC50 in data set [1] (setting [4]) is greater than 1 µM.
Take `CCN(CC)CCCC(C)Nc1c2ccc(Cl)cc2nc2ccc(OC)cc12` (stereo not shown) [quinacrine]: in the data set on PrP^Sc in dividing cells, the “activity in dividing cells” value is “rapidly cleared”. Also, in data set [2], the “activity in stationary-phase cells” value is reported as “relatively ineffective”.
In the case of `Cc1ccc2[nH]c3c(c2c1)CCCC3NCCCN(C)C` (stereo not shown) [IND23308], in data set [3], the “Reduction (%) Stationary PrP^Sc” value is 94 ^c % and the “percent reduction in PrP^Sc in the HTS” value amounted to 70%. Besides, the “effect on cell viability” value in the data set with dividing ScN2a-cl3 cells is recorded as “no effect on cell viability”.
In turn, `CC(NCCC(c1ccccc1)c1ccccc1)c1ccccc1` (stereo not shown) [Fendiline] had an EC50 in “in vitro” of 4.3 to 9.6 µM.
Turning to `Cn1c(=N)n(CC(=O)c2ccc(Br)cc2)c2ccccc21` [IND44723], the EC50 in data set [1] (setting [4]) was greater than 1 µM.
In the data set on dividing ScN2a-cl3 cells, `COc1ccc2cc1Oc1ccc(cc1)C[C@H]1c3cc(c(OC)cc3CCN1C)Oc1c(OC)c(OC)cc3c1[C@H](C2)N(C)CC3` [Tetrandine] had a CC50 of 5 to 6.1 µM.
Same read-out and setting: under `CCOc1ccc(/N=N/c2ccc(N)cc2N)cc1` [Ethoxazine] stands greater than 10 µM.
